Where two headings read alike, the source gives them in different places.
Columns and labels:
HIV RT = target: T1, HIV RT (Human immunodeficiency virus type 1 group M subtype B, UniProt P04585); conditions: cited from earlier work
T1 construct: Atevirdine/nonnucleoside reverse

[1] = cited from earlier work
[2] = cited from earlier work; for Biodistribution: in vivo
[3] = in vivo; cited from earlier work
TA-50 ribozyme = assay: Theophylline-dependent self-cleavage of ribozyme TA-50; type: biochemical; conditions: FIG. 9

| Molecule | Bioavailability ([1]; oral) | Biodistribution [2] | Toxicity/Drug Interactions [3] | other results |
| --- | --- | --- | --- | --- |
| CCNc1cccnc1N1CCN(C(=O)c2cc3cc(OC)ccc3[nH]2)CC1 [Atevirdine] | well absorbed orally | Widely distributed, crosses blood-brain | – | Other Pharmacology (HIV RT): Viral target, no other known activity; time to peak serum ([1]; oral): 30 to 60 min; maximum concentration of drug in serum ([2]; oral delivery): delivery): 7.3 uM |
| Cl.O=C(O)c1cn(C2CC2)c2c(Cl)c(N3C[C@@H]4CCCN[C@@H]4C3)c(F)cc2c1=O [Bay-y-3118] | Orally absorbed | – | No abnormal findings in humans | Half life ([1]; oral): 11.4 h; Tmax ([1]; oral): 1.3 h |
| CN1CCN(c2cc3c(cc2F)c(=O)c(C(=O)O)cn3-c2ccc(F)cn2)CC1.Cl [Fandofloxacin] | Orally absorbed | Good organ distribution including muscle | Well tolerated, v. low phototoxicity | – |
| Cc1oc(-c2ccccc2)nc1CCOc1ccc(C[C@H](Nc2ccccc2C(=O)c2ccccc2)C(=O)O)cc1 [GW-2570] | – | Muscle and adipose | – | Bioavailability ([1]; in vivo, po): Oral |
| O=C1NC(=O)C(Cc2ccc3cc(OCc4ccccc4F)ccc3c2)S1 (stereo not shown) [MCC-555] | – | Muscle and adipose | Liver toxicity (controversial) | Bioavailability ([1]; in vivo, po): Oral |
| COc1ccc2c(c1)N(C(=O)OC(C)C)[C@@H](CSC)C(=S)N2 [Talviraline] | – | Wide | – | Other Pharmacology (HIV RT): Viral target, no other known activity |
| CSc1nc2cc(Cl)c(Oc3cccc(Cl)c3Cl)cc2[nH]1 [Triclabendazole] | Oral | Liver/metabolism important | Low/none in humans | – |
| Cn1c(=O)c2[nH]cnc2n(C)c1=O [theophylline] | – | – | acceptable | theophylline concentration giving highest cleavage activity of TA-50 ribozyme (TA-50 ribozyme): 10 to 50 µM |
| TA-50: theophylline-responsive self-cleaving hammerhead ribozyme sequence selected after seven cycles, SEQ ID NO:5 (nucleic acid, listed as RNA, chemistry not given here) GGGAGAGGGAUCCAGCUGACGAGUACUGAAUACCAGCCGAAAGGCCCUUGGCAGGUUUGGUGAAACGCCUUCGGCGUCCUGGAUUAGAACUUC | – | – | – | self-cleaving ability (TA-50 ribozyme; presence of theophylline): strongly dependent on the presence of theophylline |

— US20050239061A1, “Identification and use of effectors and allosteric molecules for the alteration of gene expression” (priority 2000, published 2005)
